Test results published in ChEMBL document CHEMBL1129117 (Bioorg Med Chem Lett, 1996).

Assays:
[1] = target: T1, Angiotensin-converting enzyme (Rattus norvegicus, UniProt P47820); assay: Compound was measured for the inhibition of Angiotensin I converting enzyme
T1 sequence (P47820 whole entry): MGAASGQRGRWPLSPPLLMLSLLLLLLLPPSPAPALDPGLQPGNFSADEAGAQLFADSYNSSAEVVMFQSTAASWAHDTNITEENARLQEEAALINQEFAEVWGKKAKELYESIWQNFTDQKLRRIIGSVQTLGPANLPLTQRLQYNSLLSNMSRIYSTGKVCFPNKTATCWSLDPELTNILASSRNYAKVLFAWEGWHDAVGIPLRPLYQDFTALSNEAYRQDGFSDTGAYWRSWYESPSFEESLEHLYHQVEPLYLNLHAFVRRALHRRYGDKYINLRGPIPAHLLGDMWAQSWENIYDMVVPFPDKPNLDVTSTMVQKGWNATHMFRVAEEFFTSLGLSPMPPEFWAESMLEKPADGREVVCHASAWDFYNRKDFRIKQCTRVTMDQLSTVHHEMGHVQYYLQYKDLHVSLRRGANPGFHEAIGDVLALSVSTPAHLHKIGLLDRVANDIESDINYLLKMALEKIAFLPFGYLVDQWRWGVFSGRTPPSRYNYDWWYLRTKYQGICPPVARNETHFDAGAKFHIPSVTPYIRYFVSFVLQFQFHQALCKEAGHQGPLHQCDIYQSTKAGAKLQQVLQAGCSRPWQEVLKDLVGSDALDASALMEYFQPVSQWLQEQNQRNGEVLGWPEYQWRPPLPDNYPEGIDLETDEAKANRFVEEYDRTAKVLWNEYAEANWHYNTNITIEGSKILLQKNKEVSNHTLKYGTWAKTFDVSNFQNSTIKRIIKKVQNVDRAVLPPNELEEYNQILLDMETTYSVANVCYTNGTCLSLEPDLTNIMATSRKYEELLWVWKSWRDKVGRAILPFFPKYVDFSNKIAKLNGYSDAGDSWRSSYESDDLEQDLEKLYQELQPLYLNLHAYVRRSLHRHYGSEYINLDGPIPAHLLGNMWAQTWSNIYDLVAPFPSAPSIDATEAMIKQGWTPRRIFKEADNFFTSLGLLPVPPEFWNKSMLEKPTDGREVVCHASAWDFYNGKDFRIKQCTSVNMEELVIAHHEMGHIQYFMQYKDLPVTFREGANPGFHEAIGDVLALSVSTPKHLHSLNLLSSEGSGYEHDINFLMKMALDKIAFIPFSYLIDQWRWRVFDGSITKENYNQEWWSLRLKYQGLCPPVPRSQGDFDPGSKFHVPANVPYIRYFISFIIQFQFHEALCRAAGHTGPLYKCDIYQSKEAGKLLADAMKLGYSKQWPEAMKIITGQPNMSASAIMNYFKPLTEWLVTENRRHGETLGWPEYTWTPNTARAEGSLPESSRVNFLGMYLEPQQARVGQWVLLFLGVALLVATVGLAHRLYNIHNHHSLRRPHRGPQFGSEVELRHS

Neprilysin = target: T2, Neprilysin (Rattus norvegicus, UniProt P07861); assay: Compound was measured for the inhibition of neutral endopeptidase 24.11(NEP).
T2 sequence (P07861 whole entry): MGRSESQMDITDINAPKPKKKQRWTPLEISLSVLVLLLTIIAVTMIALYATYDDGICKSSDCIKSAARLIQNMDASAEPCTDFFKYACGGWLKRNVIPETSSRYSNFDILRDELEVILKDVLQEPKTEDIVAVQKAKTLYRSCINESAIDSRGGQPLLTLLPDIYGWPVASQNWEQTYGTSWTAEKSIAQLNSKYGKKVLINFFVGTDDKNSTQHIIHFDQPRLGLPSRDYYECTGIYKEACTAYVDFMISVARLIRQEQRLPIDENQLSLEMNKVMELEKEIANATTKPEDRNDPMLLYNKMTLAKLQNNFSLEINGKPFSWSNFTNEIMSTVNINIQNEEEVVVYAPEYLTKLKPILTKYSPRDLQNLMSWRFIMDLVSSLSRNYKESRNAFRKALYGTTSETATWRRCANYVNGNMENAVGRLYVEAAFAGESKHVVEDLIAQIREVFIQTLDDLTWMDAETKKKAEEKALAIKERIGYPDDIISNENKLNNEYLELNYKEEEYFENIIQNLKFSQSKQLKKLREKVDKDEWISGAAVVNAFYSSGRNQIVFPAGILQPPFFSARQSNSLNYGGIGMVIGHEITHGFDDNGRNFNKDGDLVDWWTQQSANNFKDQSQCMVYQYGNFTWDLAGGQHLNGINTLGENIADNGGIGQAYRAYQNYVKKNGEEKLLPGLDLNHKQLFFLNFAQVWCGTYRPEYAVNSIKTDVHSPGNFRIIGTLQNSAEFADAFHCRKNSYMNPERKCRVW

For `O=C(N[C@@H](Cc1ccccc1)P(=O)(O)CC1(C(=O)N[C@@H](Cc2c[nH]c3ccccc23)C(=O)O)CCCC1)c1ccc([N+](=O)[O-])cc1`, the IC50 [1] was 1.5 nM and the IC50 (Neprilysin) was 55 nM.
With `CS(=O)(=O)N[C@@H](CCCCN)C(=O)N[C@@H](Cc1ccccc1)P(=O)(O)CC1(C(=O)N[C@@H](Cc2c[nH]c3ccccc23)C(=O)O)CCCC1` the IC50 [1] was 2.5 nM and the IC50 (Neprilysin) was 90 nM.
